Values quoted from earlier work in patent US20110212192A1, “INGESTIBLES CONTAINING SUGAR AND CINNAMON OR GINSENG” (ALLEGIANCE EQUITY CORPORATION, priority 2008, published 2011).

Assays:
Conditions in all cases: immunoblotting; mouse 3T3-L1 adipocytes
insulin receptor (IR) = test system: insulin receptor (IR)
[1] = test system: glucose transporter 4 (GLUT4)
tristetraprolin (TTP) = test system: tristetraprolin (TTP)

insulin
increased: level of insulin receptor (IR) protein (insulin receptor (IR)) | level of glucose transporter 4 (GLUT4) protein [1] | level of tristetraprolin (TTP) protein (tristetraprolin (TTP))
